According to the supplement of paper PMC10883282:

Assays:
Assay in all cases: relative viability vs DMSO control (72 h) (fraction); higher = more viable cells
SYO-1 = tested on: SYO-1
In short: (§1)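 Sarcoma cell lines were seeded in 384-well plates at densities chosen for 80–90% confluence, then 24 h later given 2.5 µl of serially diluted compound drawn from source plates spanning 10 mM to 0.0002 mM. They were held 72 h at 37 °C, 5% CO2, with 0.1% DMSO vehicle and a 5 µM positive control included. Relative viability was read with ATPLite as percent growth and averaged over up to triplicate wells. Rescaling placed full at 1 and none at 0.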

SW872 = tested on: SW872
In short: as §1

KHOS-NP = tested on: KHOS-NP
In short: as §1

SW684 = tested on: SW684
In short: as §1

HT1080 = tested on: HT1080
In short: as §1

G401 = tested on: G401
In short: as §1

SK-LMS-1 = tested on: SK-LMS-1
In short: as §1

VA-ES-BJ = tested on: VA-ES-BJ
In short: as §1

HS729 = tested on: HS729
In short: as §1

A204 = tested on: A204
In short: as §1

SW1353 = tested on: SW1353
In short: as §1

MES-SA = tested on: MES-SA
In short: as §1

CO[C@H]1C[C@@H]2CC[C@@H](C)[C@@](O)(O2)C(=O)C(=O)N2CCCC[C@H]2C(=O)O[C@H]([C@H](C)C[C@@H]2CC[C@@H](O)[C@H](OC)C2)CC(=O)[C@H](C)/C=C(\C)[C@@H](O)[C@@H](OC)C(=O)[C@H](C)C[C@H](C)/C=C/C=C/C=C/1C [Rapamycin]
Settings	relative viability
A204, 0.00017 µM	0.894
A204, 0.00051 µM	0.707
A204, 0.00152 µM	0.614
A204, 0.00457 µM	0.542
A204, 0.01372 µM	0.513
A204, 0.04115 µM	0.499
A204, 0.1235 µM	0.489
A204, 0.3704 µM	0.464
A204, 1.111 µM	0.453
A204, 3.333 µM	0.425
A204, 10 µM	0.408
G401, 0.00017 µM	0.901
G401, 0.00051 µM	0.856
G401, 0.00152 µM	0.815
G401, 0.00457 µM	0.784
G401, 0.01372 µM	0.759
G401, 0.04115 µM	0.717
G401, 0.1235 µM	0.687
G401, 0.3704 µM	0.676
G401, 1.111 µM	0.634
G401, 3.333 µM	0.613
G401, 10 µM	0.589
HS729, 0.00017 µM	0.98
HS729, 0.00051 µM	0.999
HS729, 0.00152 µM	1.01
HS729, 0.00457 µM	0.972
HS729, 0.01372 µM	0.97
HS729, 0.04115 µM	0.926
HS729, 0.1235 µM	0.962
HS729, 0.3704 µM	0.877
HS729, 1.111 µM	0.918
HS729, 3.333 µM	0.891
HS729, 10 µM	0.92
HT1080, 0.00017 µM	1.04
HT1080, 0.00051 µM	1.03
HT1080, 0.00152 µM	1.02
HT1080, 0.00457 µM	0.97
HT1080, 0.01372 µM	0.966
HT1080, 0.04115 µM	0.972
HT1080, 0.1235 µM	0.932
HT1080, 0.3704 µM	0.917
HT1080, 1.111 µM	0.905
HT1080, 3.333 µM	0.869
HT1080, 10 µM	0.851
KHOS-NP, 0.00017 µM	1.04
KHOS-NP, 0.00051 µM	1.05
KHOS-NP, 0.00152 µM	1.07
KHOS-NP, 0.00457 µM	1.07
KHOS-NP, 0.01372 µM	1.06
KHOS-NP, 0.04115 µM	1.06
KHOS-NP, 0.1235 µM	1.03
KHOS-NP, 0.3704 µM	1.04
KHOS-NP, 1.111 µM	1.05
KHOS-NP, 3.333 µM	1.02
KHOS-NP, 10 µM	0.882
MES-SA, 0.00017 µM	0.876
MES-SA, 0.00051 µM	0.648
MES-SA, 0.00152 µM	0.469
MES-SA, 0.00457 µM	0.424
MES-SA, 0.01372 µM	0.384
MES-SA, 0.04115 µM	0.362
MES-SA, 0.1235 µM	0.363
MES-SA, 0.3704 µM	0.353
MES-SA, 1.111 µM	0.352
MES-SA, 3.333 µM	0.34
MES-SA, 10 µM	0.349
SK-LMS-1, 0.00017 µM	0.924
SK-LMS-1, 0.00051 µM	0.758
SK-LMS-1, 0.00152 µM	0.697
SK-LMS-1, 0.00457 µM	0.621
SK-LMS-1, 0.01372 µM	0.58
SK-LMS-1, 0.04115 µM	0.567
SK-LMS-1, 0.1235 µM	0.551
SK-LMS-1, 0.3704 µM	0.526
SK-LMS-1, 1.111 µM	0.554
SK-LMS-1, 3.333 µM	0.522
SK-LMS-1, 10 µM	0.5
SW684, 0.00017 µM	0.9947
SW684, 0.00051 µM	0.936
SW684, 0.00152 µM	0.812
SW684, 0.00457 µM	0.743
SW684, 0.01372 µM	0.678
SW684, 0.04115 µM	0.681
SW684, 0.1235 µM	0.718
SW684, 0.3704 µM	0.718
SW684, 1.111 µM	0.75
SW684, 3.333 µM	0.752
SW684, 10 µM	0.682
SW872, 0.00017 µM	0.867
SW872, 0.00051 µM	0.787
SW872, 0.00152 µM	0.729
SW872, 0.00457 µM	0.659
SW872, 0.01372 µM	0.602
SW872, 0.04115 µM	0.565
SW872, 0.1235 µM	0.543
SW872, 0.3704 µM	0.548
SW872, 1.111 µM	0.561
SW872, 3.333 µM	0.567
SW872, 10 µM	0.553
SW1353, 0.00017 µM	0.91
SW1353, 0.00051 µM	0.851
SW1353, 0.00152 µM	0.825
SW1353, 0.00457 µM	0.796
SW1353, 0.01372 µM	0.795
SW1353, 0.04115 µM	0.782
SW1353, 0.1235 µM	0.747
SW1353, 0.3704 µM	0.714
SW1353, 1.111 µM	0.7
SW1353, 3.333 µM	0.674
SW1353, 10 µM	0.683
SYO-1, 0.00017 µM	0.954
SYO-1, 0.00051 µM	0.893
SYO-1, 0.00152 µM	0.875
SYO-1, 0.00457 µM	0.836
SYO-1, 0.01372 µM	0.826
SYO-1, 0.04115 µM	0.792
SYO-1, 0.1235 µM	0.767
SYO-1, 0.3704 µM	0.734
SYO-1, 1.111 µM	0.706
SYO-1, 3.333 µM	0.683
SYO-1, 10 µM	0.66
VA-ES-BJ, 0.00017 µM	0.942
VA-ES-BJ, 0.00051 µM	0.814
VA-ES-BJ, 0.00152 µM	0.723
VA-ES-BJ, 0.00457 µM	0.584
VA-ES-BJ, 0.01372 µM	0.476
VA-ES-BJ, 0.04115 µM	0.451
VA-ES-BJ, 0.1235 µM	0.435
VA-ES-BJ, 0.3704 µM	0.427
VA-ES-BJ, 1.111 µM	0.444
VA-ES-BJ, 3.333 µM	0.446
VA-ES-BJ, 10 µM	0.43
